Test results taken from patent US6486177B2, “Methods for treatment of cognitive and menopausal disorders with D-threo methylphenidate” (Celgene Corporation, priority 1995, dated 2002).

Assays:
[1] = children suffering from ADHD; Clin. Pharmacol. Ther. 52: 561-568 (1992); cited from earlier work
[2] = D-threo vs DL-threo methylphenidate vs placebo in patients in the context of ADD: objective tests and subjective observations; format: in vivo, human; conditions: for performance in objective tests: at the 6 hour time point, versus DL-threo racemate or placebo
Source text: The present inventors have observed that in the context of ADD, D-threo methylphenidate has a longer duration of action than DL-methylphenidate of at least six hours.
Response by patients with cognitive deficiencies described herein is generally determined by two types of measurements: objective measures of a patient's ability to concentrate and remain focused on a task such as performing a math test; and subjective scores of a patient's performance.

[3] = cited from earlier work

Structure (SMILES) | pharmacodynamic activity / pharmacological effectiveness [1] | persistence of beneficial effects ([2]; D-threo isomer alone versus in combination with the L-threo isomer) | performance in objective tests [2] | subjective observations: duration of beneficial effects ([2]; same patients, versus DL-threo racemate) | euphoric effect / potential for abuse ([3]; administered intravenously or through inhalation or ingestion) | undesirable side effects ([3]; use of the racemate)
COC(=O)[C@H](c1ccccc1)[C@H]1CCCCN1 [D-threo methylphenidate, D-threo-methylphenidate] | pharmacodynamic activity of DL-threo-methylphenidate resides in the D-threo isomer | persist for a longer period time when the D-threo isomer is administered alone than when it is administered in combination with the L-threo isomer | performed better in objective tests than patients who received the DL-threo racemate or a placebo | experienced beneficial effects of the drug for longer times than did those who received the DL-threo racemate | – | –
COC(=O)[C@@H](c1ccccc1)[C@@H]1CCCCN1 (single isomer, unassigned) [L isomer, L-threo-methylphenidate, reference compound] | apparently makes no significant contribution to the pharmacological effectiveness of the drug | – | – | – | – | –
COC(=O)C(c1ccccc1)C1CCCCN1 (racemic) [DL-threo racemate, DL-threo-methylphenidate] | – | – | did not perform better after that time period than those who received a placebo | – | produces a euphoric effect | anorexia, weight loss, insomnia, dizziness and dysphoria
